Reference: patent publication US20080153840A1, “REDUCTION OF CARDIOVASCULAR SYMPTOMS” (priority 2006, published 2008)
Where a name gives a salt, the structure may show the parent alone. Read-outs that look alike come from different tables or passages of the source.

Assays:
anesthetized rabbits = experiment: clofilium-induced Torsades de Pointes in methoxamine-treated anesthetized rabbits; format: in vivo, rabbit
Experimental: Spontaneous TdP was induced with methoxamine (α1-adrenoceptor agonist) followed by clofilium (Ikr blocker) in anesthetized rabbits as previously described by Carlsson et al (J. Cardiovas. Pharmacol 1990; 16:276-285). RAN was given via intravenous (iv) infusion 10 min prior to clofilium. Arterial pressure (BP), lead II ECG and endocardial Monophasic Action Potential (MAP) were recorded. QT interval was corrected for heart rate by using a formula developed for rabbits: QTc=QT−0.175*(RR−300).

female rabbit hearts = experiment: female rabbit isolated hearts paced at 1 Hz: monophasic action potentials and 12-lead ECG
[1] = tested on: rabbit and guinea-pig isolated hearts and canine ventricular myocytes; settings: cited from earlier work
IKr = settings: cited from earlier work
[2] = molecular target: HERG channels expressed in HEK293 cells (Homo sapiens, UniProt Q12809); settings: for time constant for development of block of IHERG: human
Source text: Human-ether-a-go-go related gene (HERG) encodes the cardiac rapidly activating delayed rectifier K^+ current (IKr). Inhibition of HERG K^+ current (IHERG) is a mechanism for drug-induced long QT syndrome.

[3] = tested on: slow component of the delayed rectifier K+ current; settings: at 30 μM; cited from earlier work
[4] = tested on: transient outward K+ current (Ito); settings: cited from earlier work
[5] = tested on: inward rectifier K+ current (IKI); settings: cited from earlier work
[6] = cited from earlier work
[7] = ranolazine 10 μM in the presence of 60 nM E-4031, n=9, p<0.01
[8] = iv infusion 10 min prior to clofilium, n=6

Chain of HERG channels expressed in HEK293 cells (Q12809 whole entry): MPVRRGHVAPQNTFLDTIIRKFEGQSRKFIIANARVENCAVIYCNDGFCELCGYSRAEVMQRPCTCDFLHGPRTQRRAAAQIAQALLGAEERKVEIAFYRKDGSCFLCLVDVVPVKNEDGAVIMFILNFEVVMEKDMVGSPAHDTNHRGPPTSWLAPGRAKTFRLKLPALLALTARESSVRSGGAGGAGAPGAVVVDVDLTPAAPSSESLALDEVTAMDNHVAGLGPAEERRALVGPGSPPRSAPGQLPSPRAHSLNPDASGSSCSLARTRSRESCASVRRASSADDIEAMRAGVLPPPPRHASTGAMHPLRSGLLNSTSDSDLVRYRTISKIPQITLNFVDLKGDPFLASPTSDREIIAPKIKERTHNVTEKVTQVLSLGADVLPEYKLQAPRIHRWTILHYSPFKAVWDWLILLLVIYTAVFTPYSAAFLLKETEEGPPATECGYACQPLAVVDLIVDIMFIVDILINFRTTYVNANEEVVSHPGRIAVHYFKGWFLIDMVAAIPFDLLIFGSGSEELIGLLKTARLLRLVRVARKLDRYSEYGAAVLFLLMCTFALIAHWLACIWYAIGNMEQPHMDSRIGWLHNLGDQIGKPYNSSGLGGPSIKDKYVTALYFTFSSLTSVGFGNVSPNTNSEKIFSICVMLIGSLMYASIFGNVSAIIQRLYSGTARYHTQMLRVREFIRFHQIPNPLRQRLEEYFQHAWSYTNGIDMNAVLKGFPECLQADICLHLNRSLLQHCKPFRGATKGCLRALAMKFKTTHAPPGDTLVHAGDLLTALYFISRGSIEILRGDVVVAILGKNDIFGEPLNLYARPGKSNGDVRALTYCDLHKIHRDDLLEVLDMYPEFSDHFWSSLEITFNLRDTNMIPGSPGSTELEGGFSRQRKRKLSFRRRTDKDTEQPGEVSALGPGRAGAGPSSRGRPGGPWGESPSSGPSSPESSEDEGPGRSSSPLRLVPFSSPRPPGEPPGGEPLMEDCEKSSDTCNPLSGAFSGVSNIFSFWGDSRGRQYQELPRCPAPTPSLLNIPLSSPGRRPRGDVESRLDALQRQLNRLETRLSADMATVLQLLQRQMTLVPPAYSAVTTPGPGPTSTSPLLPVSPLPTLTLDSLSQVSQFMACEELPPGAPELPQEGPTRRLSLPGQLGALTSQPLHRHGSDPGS

Structure (SMILES): CCCCCCC[N+](CC)(CC)CCCCc1ccc(Cl)cc1.[Br-] [Clofilium, 4-chloro-N,N-diethyl-N-heptyl benzenebutanaminium bromide]
- rabbits with TdP (anesthetized rabbits; clofilium after methoxamine, rabbits with TdP/rabbits): 6/6
- MAPD90 after clofilium (anesthetized rabbits; from 123±6 ms, n=6, P<0.05): 201 ± 21 ms
- QTc after clofilium (anesthetized rabbits; from 130±4 ms, n=6, P<0.05): 200 ± 18 ms

Structure (SMILES): Cc1cccc(CCN2CCC(C(=O)c3ccc(NS(C)(=O)=O)cc3)CC2)n1 [E-4031, N-(4-[(1-[2-(6-methyl-2-pyridyl)ethyl]-4-piperidylcarbonyl]phenyl)methanesulfonamidedihydrochloride dehydrate]
- epicardial MAPD90 with drug (female rabbit hearts): 254 ± 6 ms
- increase of transmural MAPD dispersion (female rabbit hearts): 74 ± 7 ms
- prolongation of duration of epicardial MAP (MAPD90) (female rabbit hearts): 75 ± 5 ms
- transmural MAPD dispersion with drug (female rabbit hearts): 90 ± 10 ms

Structure (SMILES): NC1=N[C@H](O)[C@H]2[C@H]3O[C@]4(O)O[C@@H]([C@@H](O)[C@@]2(N1)[C@@H]4O)[C@]3(O)CO [TTX, Tetrodotoxin]
- changes in the QRS interval (female rabbit hearts): no or minimal changes
- decrease of transmural dispersion (female rabbit hearts): 47 ± 11 ms
- effect on MAPD90 (female rabbit hearts): no effects
- effect on transmural dispersion of MAPD90 (female rabbit hearts): no effects
- shortening of MAPD (female rabbit hearts): 33 ± 8 ms

Structure (SMILES): COc1ccccc1OCC(O)CN1CCN(CC(=O)Nc2c(C)cccc2C)CC1 (stereo not shown) [ranolazine, N-(2,6-dimethylphenyl)-4-[2-hydroxy-3-(2-methoxyphenoxy)propyl]-1-piperazineacetamide]
- increase in monophasic APD (MAPD) or QT interval ([1]; at therapeutic concentrations): 2 to 6 ms
- pro-arrhythmic activity [1]: not associated with pro-arrhythmic activity
- effect on IKr (IKr): inhibit
- character of block of IHERG [2]: reversible and voltage-dependent, but frequency-independent
- time constant for development of block of IHERG ([2]; 10 μM): 76.6 ± 1.6 ms
- time constant for development of block of IHERG ([2]; 30 μM): 35.8 ± 2.4 ms
- time constant for development of block of IHERG ([2]; 100 μM): 19.4 ± 1.7 ms
- inhibition of the slow component of the delayed rectifier K+ current (IKr) [3]: ~17%
- changes in the QRS interval (female rabbit hearts): no or minimal changes
- effect on spontaneous and pause-triggered episodes of TdP induced by 60 nM E-4031 (female rabbit hearts; ranolazine 10 μM): abolished
- decrease of transmural dispersion (female rabbit hearts; [7]): 40 ± 9 ms
- shortening of MAPD90 (female rabbit hearts; [7]): 19 ± 5 ms
- effect on transmural dispersion of MAPD90 (female rabbit hearts; ranolazine 5-30 μM alone): without increasing
- prolongation of epicardial MAPD90 (female rabbit hearts; ranolazine 5-30 μM alone, concentration-dependent, n=7, p<0.01): 32±4%
- effect on Ito [4]: no effect
- occurrence of TdP (anesthetized rabbits; RAN at 25 μM, P<0.005 vs vehicle control): 0/6
- QRS interval (anesthetized rabbits; RAN at 25 μM, from 32±1 ms, n=5, P>0.05): 33 ± 1 ms
- PR interval (anesthetized rabbits; RAN at 25 μM, from 79±2 ms, n=5, P>0.05): 77 ± 1 ms
- heart rate (anesthetized rabbits; RAN at 25 μM, from 186±9 bpm, n=5, P>0.05): 204±10 bpm
- ED50 for suppression of clofilium-induced MAPD90 prolongation (anesthetized rabbits; [8]): 15 µM
- ED50 for suppression of clofilium-induced QTc prolongation (anesthetized rabbits; [8]): 10 µM
- ED50 for suppression of clofilium-induced TdP (anesthetized rabbits; [8]): 10 µM
- effect on IKI [5]: no effect
- effect on MAPD90 ([6]; in the absence of ATX-II): increased
- effect on MAPD ([6]; in the presence of 2 nM ATX-II): shortened
